We go through three compounds from ChEMBL document CHEMBL3271977, “Stereospecific interaction of the quaternized opiate, N-methyllevorphanol, with opiate receptors” (J Med Chem, 1976).

Assay [1] deals with Ileum. Briefly: Inhibition of electrically-induced contraction of guinea pig ileum longitudinal muscle with myentric plexus. It counts as functional, tissue-based. The settings on record: Cavia porcellus.
The test system of assay [2] is Ileum. Briefly: Inhibition of electrically-induced contraction of guinea pig ileum longitudinal muscle with myentric plexus in presence of naloxone. It counts as functional, tissue-based. The following applies: Cavia porcellus.
In assay [3] the test system is Ileum. Briefly: Reduction in response of guinea pig ileum longitudinal muscle to exogenous acetylcholine. In kind it is functional, tissue-based. The following applies: Cavia porcellus.
The subject of assay [4] is Ileum. Briefly: Stimulation of guinea pig ileum longitudinal muscle contraction relative to levorphanol. It counts as functional, Cavia porcellus.
In assay [5] the test system is Ileum. As to the kind of experiment: Inhibition of electrically-induced contraction of guinea pig ileum longitudinal muscle relative to levorphanol. In kind it is functional, Cavia porcellus.
Assay [6] can be described thus: Displacement of [3H]etorphine from opioid receptor in guinea pig brain homogenate by scintillation counting analysis. In kind it is tissue-based, Cavia porcellus.
For assay [7], the system named is Ileum. As to the kind of experiment: Inhibition of electrically-induced contraction of guinea pig ileum longitudinal muscle with myentric plexus up to 10^-5 M. It counts as functional, tissue-based. The following applies: Cavia porcellus.
Assay [8] relates to Ileum. Briefly: Inhibition of electrically-induced contraction of guinea pig ileum longitudinal muscle with myentric plexus at 4 X 10^-5 M. In kind it is functional, tissue-based. The following applies: Cavia porcellus.

The structures appear in SMILES notation. pIC50: −log10 of the molar value. Activity calls are given as the source filed them. The calls are words filed in the database; no cut-off is given here.

`C[N+]1(C)CC[C@]23CCCC[C@H]2[C@H]1Cc1ccc(O)cc13.[I-]`: the pIC50 (commonly −log10 of the IC50, conventionally taken in molar units) was 6.21 in the assay on Ileum [1] and 6.28 in assay [6]. For the same compound, the inhibition entry in the assay on Ileum [1] was “Dose-dependent effect”. Also, the inhibition result in the assay on Ileum [2] and in the assay on Ileum [3] was “inactive” in each case. Also, the “fold change (FC)” value with Ileum [4] worked out at 0.068; with Ileum [5], 0.032.

In turn, `CN1CC[C@]23CCCC[C@H]2[C@H]1Cc1ccc(O)cc13` [LEVORPHANOL] had a pIC50 in assay [6] of 8.10.

As for `C[N+]1(C)CC[C@@]23CCCC[C@@H]2[C@@H]1Cc1ccc(O)cc13`, the inhibition result with Ileum [7] was “inactive”. Further, in the assay on Ileum [8], the inhibition entry was “Active”.
